According to patent publication US8961873B2, “Antinfection protecting healthcare workers to prevent spreading of communicable and nosocomial infections” (priority 2011, dated 2015):

Details: the rest remains in inactive suspension

[Ca+2].[F-].[F-] [CaF2, Calcium-Fluoride]
amount going into solution in water: 16 ppm
